Data set [1] concerns the target T1, human P450 3A4 (Homo sapiens, UniProt P08684). Nature of the data set: Spectral binding titration with purified P450 3A4. The note with it: for spectral change / Type I binding spectra with P450 3A4, in words: decreases in α and β bands monitored, up to 100 µM.
Data set [2] deals with T2, human P450 2C9 (Homo sapiens, UniProt P11712). Nature of the data set: Inhibition of P450 2C9-dependent flurbiprofen 4’-hydroxylation.
The target of data set [3] is T2, human P450 2C9. In words: Spectral binding titration with purified P450 2C9. The note with it: concentrations up to 100 µM; results not shown.
In data set [4] the target is T1, human P450 3A4. Nature of the data set: Effect on P450 3A4-catalyzed midazolam 1’-hydroxylation.
For data set [5], the target named is T3, human P450 1B1 (Homo sapiens, UniProt Q16678).
T3 sequence (Q16678 1-543): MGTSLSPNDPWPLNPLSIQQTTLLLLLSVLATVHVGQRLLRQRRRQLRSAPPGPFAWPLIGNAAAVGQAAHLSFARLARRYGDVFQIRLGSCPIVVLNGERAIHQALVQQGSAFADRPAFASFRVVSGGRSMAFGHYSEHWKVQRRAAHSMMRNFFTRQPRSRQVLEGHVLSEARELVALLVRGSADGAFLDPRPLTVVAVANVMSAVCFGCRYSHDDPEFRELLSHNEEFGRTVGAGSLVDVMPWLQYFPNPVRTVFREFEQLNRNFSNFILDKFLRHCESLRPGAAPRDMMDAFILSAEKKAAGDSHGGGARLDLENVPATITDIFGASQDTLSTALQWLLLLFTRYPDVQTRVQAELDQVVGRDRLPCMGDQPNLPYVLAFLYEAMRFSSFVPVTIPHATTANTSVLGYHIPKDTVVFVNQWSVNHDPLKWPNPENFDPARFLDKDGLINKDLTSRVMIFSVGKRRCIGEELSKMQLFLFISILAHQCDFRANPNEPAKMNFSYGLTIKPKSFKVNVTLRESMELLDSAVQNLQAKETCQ
In words: Spectral binding titration with purified P450 1B1.

Data set [6] deals with T1, human P450 3A4. In words: Inhibition of P450 3A4-dependent midazolam 4-hydroxylation.
The next data set deals with T4, human P450 1A1 (Homo sapiens, UniProt P04798).
T4 sequence (P04798 1-512): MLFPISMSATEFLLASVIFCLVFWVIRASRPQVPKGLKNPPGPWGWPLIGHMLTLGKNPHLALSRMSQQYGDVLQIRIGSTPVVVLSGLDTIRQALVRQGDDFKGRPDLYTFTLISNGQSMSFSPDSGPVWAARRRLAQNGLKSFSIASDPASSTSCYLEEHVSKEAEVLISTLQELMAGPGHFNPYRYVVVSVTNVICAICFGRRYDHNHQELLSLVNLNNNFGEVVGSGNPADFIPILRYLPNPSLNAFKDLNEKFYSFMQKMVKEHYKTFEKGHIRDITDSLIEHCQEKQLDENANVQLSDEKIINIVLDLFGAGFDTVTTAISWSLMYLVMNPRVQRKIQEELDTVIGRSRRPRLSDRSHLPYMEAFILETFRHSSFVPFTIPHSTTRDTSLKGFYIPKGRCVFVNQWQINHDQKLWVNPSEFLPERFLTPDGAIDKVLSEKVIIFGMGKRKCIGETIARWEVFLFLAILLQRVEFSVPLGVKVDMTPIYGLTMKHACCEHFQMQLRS
Nature of the data set: Inhibition of P450 1A1-dependent EROD activity. It is filed as biochemical.

In data set [7] the target is T5, human P450 1A2 (Homo sapiens, UniProt P05177).
T5 sequence (P05177 1-516): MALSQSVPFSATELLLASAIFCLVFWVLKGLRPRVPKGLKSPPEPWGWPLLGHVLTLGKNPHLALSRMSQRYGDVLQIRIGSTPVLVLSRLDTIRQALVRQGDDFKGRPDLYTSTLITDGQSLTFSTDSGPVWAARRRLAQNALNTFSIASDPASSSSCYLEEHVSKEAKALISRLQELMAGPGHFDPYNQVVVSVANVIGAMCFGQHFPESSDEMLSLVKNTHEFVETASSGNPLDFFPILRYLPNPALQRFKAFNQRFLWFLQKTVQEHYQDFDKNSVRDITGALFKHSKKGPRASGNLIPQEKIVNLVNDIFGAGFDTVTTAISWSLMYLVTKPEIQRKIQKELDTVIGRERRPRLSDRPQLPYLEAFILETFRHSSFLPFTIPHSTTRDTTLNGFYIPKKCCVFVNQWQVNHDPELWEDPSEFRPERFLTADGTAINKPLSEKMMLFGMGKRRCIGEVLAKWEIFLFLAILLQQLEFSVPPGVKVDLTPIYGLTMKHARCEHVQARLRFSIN
In words: Inhibition of P450 1A2-dependent EROD activity.

The target in data set [8] is T5, human P450 1A2.
The target of data set [9] is T3, human P450 1B1. In words: Inhibition of P450 1B1-dependent EROD activity. The class given is biochemical.

The record followed here is PMC3072440 (Chemical research in toxicology, 2010).

Where two headings read alike, the source gives them in different places. Where only a bound is given, the exact number is not on record here.

T1 sequence (P08684 whole entry): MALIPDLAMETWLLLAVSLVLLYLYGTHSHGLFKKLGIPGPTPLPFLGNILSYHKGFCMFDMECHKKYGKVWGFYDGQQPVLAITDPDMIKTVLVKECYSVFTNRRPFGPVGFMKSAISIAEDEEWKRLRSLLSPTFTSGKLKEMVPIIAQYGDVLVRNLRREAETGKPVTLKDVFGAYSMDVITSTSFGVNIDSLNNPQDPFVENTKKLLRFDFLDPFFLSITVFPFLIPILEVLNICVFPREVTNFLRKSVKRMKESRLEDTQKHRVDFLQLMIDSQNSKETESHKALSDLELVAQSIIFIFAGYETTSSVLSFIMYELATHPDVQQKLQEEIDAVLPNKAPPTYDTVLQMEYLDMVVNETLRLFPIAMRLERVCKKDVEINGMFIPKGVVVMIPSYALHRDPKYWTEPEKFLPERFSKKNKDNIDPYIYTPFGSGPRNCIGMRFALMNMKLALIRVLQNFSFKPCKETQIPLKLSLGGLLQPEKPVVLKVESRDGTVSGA
T2 sequence (P11712 whole entry): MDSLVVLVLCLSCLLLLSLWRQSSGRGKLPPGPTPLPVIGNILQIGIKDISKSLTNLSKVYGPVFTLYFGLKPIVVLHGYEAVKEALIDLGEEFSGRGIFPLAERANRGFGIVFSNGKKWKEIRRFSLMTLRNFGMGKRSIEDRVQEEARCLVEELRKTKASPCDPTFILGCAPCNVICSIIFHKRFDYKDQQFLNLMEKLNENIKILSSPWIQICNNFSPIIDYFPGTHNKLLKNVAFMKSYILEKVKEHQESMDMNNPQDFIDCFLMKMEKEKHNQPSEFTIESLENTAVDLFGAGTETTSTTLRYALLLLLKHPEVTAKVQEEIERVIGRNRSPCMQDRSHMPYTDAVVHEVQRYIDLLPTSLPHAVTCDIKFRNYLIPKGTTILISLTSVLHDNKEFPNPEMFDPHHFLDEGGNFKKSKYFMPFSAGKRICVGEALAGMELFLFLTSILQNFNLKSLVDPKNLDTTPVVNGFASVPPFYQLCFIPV

Consider `O=c1cc(-c2ccccc2)oc2ccccc12` [flavone], for which the “spectral change / Type I binding spectra with P450 3A4, in words” value (shortened to “spectral change / Type I binding spectra”) on human P450 3A4 [1] was “Type I spectral change”. For the same compound, at human P450 3A4 [1] (purified P450 3A4), the “ΔAmax, P450 3A4, from difference spectra (Soret band)” value was determined as 0.12 ± 0.02. The figures for the IC50 against human P450 2C9 [2], on human P450 1A1 and against human P450 1A2 [7] were 14 ± 1.2 µM, 0.98 ± 0.21 µM and 0.13 ± 0.03 µM, respectively. On human P450 2C9 [3], the “spectral changes with P450 2C9, in words” value was “did not induce spectral changes”. The “effect on formation of 1’-hydroxymidazolam by P450 3A4, in words” value (shortened to “effect on formation”) at human P450 3A4 [4] is “enhanced the formation of 1’-hydroxymidazolam”. Besides, on human P450 1B1 [5], the “binding spectra with P450 1B1, in words” value is “Reverse Type I binding spectra”. The “inhibition of P450 3A4 midazolam 4-hydroxylation, in words” value at human P450 3A4 [6] was “inhibited the formation of 4-hydroxymidazolam”.
Compound `C#CCOc1ccccc1-c1cc(=O)c2ccc3ccccc3c2o1` [ANF2’PE, α-naphthoflavone 2’-propargyl ether] came in with an IC50 on human P450 1A2 [8] of 0.24 µM. This lies in the sub-micromolar range.
For `O=c1c(O)c(-c2ccc(O)cc2)oc2cc(O)cc(O)c12` [34’57TetraHF, 3,4’,5,7-tetrahydroxyflavone], the “spectral changes with P450 2C9, in words” value on human P450 2C9 [3] was “did not induce spectral changes”.
As for `COc1cccc(-c2cc(=O)c3ccccc3o2)c1` [3’MF, 3’-methoxyflavone], at human P450 3A4 [1], the “spectral change / Type I binding spectra” value was “induced spectral changes”. On human P450 3A4 [6], the “inhibition of P450 3A4 midazolam 4-hydroxylation, in words” value is given as “not very effective inhibitors”.
On to `O=c1cc(-c2ccccc2)oc2cc(O)ccc12` [7HF, 7-hydroxyflavone], for which the “inhibition of P450 2C9 flurbiprofen 4’-hydroxylation, in words” value against human P450 2C9 [2] is “strong inhibitors”. Besides, the “spectral changes with P450 2C9, in words” value at human P450 2C9 [3] is on record as “did not induce spectral changes”. In addition, the half-inhibitory concentration (IC50) at human P450 3A4 [6] is above 100 µM.
`COc1ccc(-c2coc3cc(O)cc(O)c3c2=O)cc1` [4’M57DHIsoF, 4’-methoxy-5,7-dihydroxyisoflavone]: on human P450 2C9 [3], the “spectral changes with P450 2C9, in words” value was “did not induce spectral changes”. Also, the IC50 against human P450 1B1 [9] turned out to be 0.7 µM. Moreover, on human P450 1B1 [9] (357THF 0.02 µM, 4’57THFva 8.0 µM, 4’M57DHisoF 8.0 µM, results not shown), the “pattern of inhibition of P450 1B1 (kinetic analysis)” value is listed as “mixed-type”.
For `CC(C(=O)O)c1ccc(-c2ccccc2)c(F)c1` (stereo not drawn) [flurbiprofen], at human P450 2C9 [3], the “spectral changes with P450 2C9, in words” value is reported as “Type I spectra”.
For the compound `O=c1cc(-c2ccccc2)oc2ccc3ccccc3c12` [BNF, β–naphthoflavone], the “spectral changes with P450 2C9, in words” value at human P450 2C9 [3] is “did not induce spectral changes”. For the same compound, the IC50 on human P450 1B1 [9] stood at 0.017 µM. Further, the “inhibition of P450 3A4 midazolam 4-hydroxylation, in words” value at human P450 3A4 [6] is on record as “not active inhibitors”. At human P450 1A1, the “inhibition of P450 1A1 EROD, in words” value is reported as “strongly inhibited”. In addition, at human P450 1A2 [7], the “inhibition of P450 1A2 EROD, in words” value was “only weakly”.
On to `COc1ccccc1-c1cc(=O)c2ccc(O)c(O)c2o1` [2’M78DHF, 2’-methoxy-7,8-dihydroxyflavone], for which the “binding spectra with P450 1B1, in words” value is recorded as “no binding spectra” at human P450 1B1 [5] and “did not show spectra” on human P450 1B1 [5] (listed as 2M78DHF).
Regarding `COc1ccc(-c2cc(=O)c3c(O)cc(O)cc3o2)cc1` [4’M57DHF, 4’-methoxy-5,7-dihydroxyflavone], the “spectral change / Type I binding spectra” value on human P450 3A4 [1] is “induced spectral changes”. Moreover, on human P450 2C9 [2], the IC50 was found to be 0.65 ± 0.13 µM and the “inhibition of P450 2C9 flurbiprofen 4’-hydroxylation, in words” value is listed as “strong inhibitors”. In addition, the “spectral changes with P450 2C9, in words” value on human P450 2C9 [3] is “did not induce spectral changes”. In addition, the “effect on formation” value on human P450 3A4 [4] is “slightly activated”. In addition, at human P450 3A4 [6], the “inhibition of P450 3A4 midazolam 4-hydroxylation, in words” value was “significantly inhibited”.
For the compound `C#CCOc1ccccc1-c1cc(=O)c2c(ccc3ccccc32)o1` [BNF2’PE, β–naphthoflavone 2’-propargyl ether], the “inhibition of P450 1A2 EROD, in words” value on human P450 1A2 [8] is listed as “only weakly”.
Take `COc1ccccc1-c1cc(=O)c2ccccc2o1` [2’MF, 2’-Methoxyflavone]: the “spectral change / Type I binding spectra” value on human P450 3A4 [1] is “induced spectral changes”. Moreover, the “inhibition of P450 3A4 midazolam 4-hydroxylation, in words” value against human P450 3A4 [6] is “not very effective inhibitors”.
As to `C#CCOc1ccc(-c2cc(=O)c3c(ccc4ccccc43)o2)cc1` [BNF4’PE, β–naphthoflavone 4’-propargyl ether], the “inhibition of P450 1A2 EROD, in words” value at human P450 1A2 [8] was “only weakly”.
Consider `O=c1cc(-c2ccccc2)oc2cccc(O)c12` [5HF, 5-hydroxyflavone], for which, at human P450 3A4 [6], the half-inhibitory concentration (IC50) was above 100 µM.
With `O=c1c(O)c(-c2ccccc2)oc2cc(O)cc(O)c12` [357THF, 3,5,7-trihydroxyflavone], the “spectral change / Type I binding spectra” value at human P450 3A4 [1] is reported as “induced spectral changes”. Besides, on human P450 2C9 [2], the IC50 came out at 0.2 ± 0.03 µM and the “inhibition of P450 2C9 flurbiprofen 4’-hydroxylation, in words” value is “strong inhibitors”. Besides, the “spectral changes with P450 2C9, in words” value on human P450 2C9 [3] is “did not induce spectral changes”. In addition, on human P450 3A4 [4], the “effect on formation” value was “slightly activated”. On human P450 3A4 [6], the midpoint of inhibition, the IC50, lay at 2.3 ± 0.3 µM and the “inhibition of P450 3A4 midazolam 4-hydroxylation, in words” value is given as “significantly inhibited”.
For the compound `COc1ccc(-c2cc(=O)c3ccccc3o2)cc1OC` [3’4’DMF, 3’,4’-dimethoxyflavone], the “inhibition of P450 3A4 midazolam 4-hydroxylation, in words” value at human P450 3A4 [6] is reported as “not very effective inhibitors”.
Take `O=c1cc(-c2ccccc2)oc2c1ccc1ccccc12` [ANF, α-naphthoflavone]: at human P450 2C9 [3], the “spectral changes with P450 2C9, in words” value is “did not induce spectral changes”. The IC50 at human P450 3A4 [6] stood at 18 µM. The “inhibition of P450 1A1 EROD, in words” value against human P450 1A1 is “strongly inhibited”.
For the compound `COc1ccc(-c2cc(=O)c3ccc(O)c(O)c3o2)cc1OC` [3’4’DM78DHF, 3’,4’-dimethoxy-7,8-dihydroxyflavone], the IC50 at human P450 2C9 [2] was 25 ± 4.2 µM; at human P450 1B1 [9] it was above 100 µM; at human P450 3A4 [6], above 100 µM; against human P450 1A1 it was 41 ± 10 µM; against human P450 1A2 [7], above 100 µM. Moreover, the “inhibition of P450 3A4 at 100 µM, in words” value on human P450 3A4 [6] (100 µM concentration) is recorded as “not inhibitory”. For the same compound, on human P450 1A2 [7] (100 µM concentration), the “inhibition of P450 1A2 at 100 µM, in words” value is given as “did not inhibit”.
On to `COc1ccccc1-c1cc(=O)c2c(O)cc(O)cc2o1` [2’M57DHF, 2’-methoxy-5,7-dihydroxyflavone], for which, on human P450 2C9 [2], the “inhibition of P450 2C9 flurbiprofen 4’-hydroxylation, in words” value is “strong inhibitors”. Besides, the IC50 is 2 µM on human P450 3A4 [6] and 1.4 µM on human P450 1A1.
For the compound `C[C@@H]1O[C@@H](O[C@H]2[C@H](Oc3cc(O)c4c(c3)O[C@H](c3ccc(O)cc3)CC4=O)O[C@H](CO)[C@@H](O)[C@@H]2O)[C@H](O)[C@H](O)[C@H]1O` [4’57THFvaG, 4’,5,7-trihydroxyflavanone glycoside], on human P450 1B1 [9], the “inhibition of P450 1B1 EROD, in words” value was “weak inhibitor”.
With `C#CCOc1ccc(-c2cc(=O)c3ccc4ccccc4c3o2)cc1` [ANF4’PE, α-naphthoflavone 4’-propargyl ether], 0.1 µM corresponded to half-maximal inhibition on human P450 1A2 [8] (IC50).
With `COc1ccc(-c2cc(=O)c3ccccc3o2)cc1` [4’MF, 4’-methoxyflavone], the “spectral change / Type I binding spectra” value at human P450 3A4 [1] is “induced spectral changes”. The “inhibition of P450 3A4 midazolam 4-hydroxylation, in words” value at human P450 3A4 [6] is reported as “not very effective inhibitors”.
